Assays:
[1] = biological target: T1, BRD4 (BDI_K57-E168) (Homo sapiens, UniProt O60885); assay: TR-FRET bromodomain binding assay, first bromodomain of BRD4; settings: His-tagged BD1, 100 nM Alexa647 probe; TR-FRET protocol A-E given per row
T1 construct: BD1: amino acids K57-E168; made in house
Experimental: (§1) A time-resolved fluorescence resonance energy transfer (TR-FRET) assay was used to determine the affinities of compounds of the Examples listed in Table 1 for each bromodomain of BRD4. His-tagged first (BD1: amino acids K57-E168) and second (BD2: amino acids E352-E168) bromodomains of BRD4 were expressed and purified. An Alexa647-labeled BET-inhibitor was used as the fluorescent probe in the assay.
(§2) Compound dilution series were prepared in DMSO via an approximately 3-fold serial dilution from one of the following:
Assay method A: 250 μM-4.2 nM
Assay method B: 0.47 mM to 7.8 nM
Assay method C: 500 μM-8.5 nM
(§3) Assay method D: 2.5 mM-800 nM
Assay method E: 0.047 mM to 0.78 nM or 5-fold serial dilution from Assay method D
For Assay methods A, C, and D: Compounds were then diluted 6:100 in assay buffer (20 mM Sodium Phosphate, pH 6.0, 50 mM NaCl, 1 mM Ethylenediaminetetraacetic acid, 0.01% Triton X-100, 1 mM DL-Dithiothreitol) to yield 3× working solutions. Six microliters (μL) of the working solution was then transferred to white, low-volume assay plates (Costar #3673). A 1.5× assay mixture containing His-tagged bromodomain, Europium-conjugated anti-His antibody (Invitrogen PV5596) and the Alexa-647-conjugated probe molecule was also prepared. Twelve μL of this solution were added to the assay plate to reach a final volume of 18 μL.
For Assay methods B and E: Compound dilutions were added directly into white, low-volume assay plates (Perkin Elmer Proxiplate 384 Plus #6008280) using a Labcyte Echo in conjunction with Labcyte Access and Thermo Multidrop CombinL robotics. Compounds were then suspended in eight microliters (μL) of assay buffer (20 mM Sodium Phosphate, pH 6.0, 50 mM NaCl, 1 mM Ethylenediaminetetraacetic acid disodium salt dihydrate, 0.01% Triton X-100, 1 mM DL-Dithiothreitol) containing His-tagged bromodomain, Europium-conjugated anti-His antibody (Invitrogen PV5596) and Alexa-647-conjugated probe.
The final concentration of 1× assay mixture for assay methods A, B, C, D, and E contains 2% DMSO, 8 nM His-tagged bromodomain, 1 nM Europium-conjugated anti-His-tag antibody and 100 nM or 30 nM probe (for BDI or BDII, respectively) and compound concentration in the range of: 5 μM-85 pM for method A, 9.19 μM 150 pM for method B, 10 μM-169 pM for method C, 50 μM-16 nM for method D, and 0.92 μM-15 pM for method E.
After a one-hour equilibration at room temperature, TR-FRET ratios were determined using an Envision multilabel plate reader (Ex 340, Em 495/520).
TR-FRET data were normalized to the means of 24 no-compound controls (“high”) and 8 controls containing 1 μM un-labeled probe (“low”). Percent inhibition was plotted as a function of compound concentration and the data were fit with the 4 parameter logistic equation to obtain IC50s Inhibition constants (Ki) were calculated from the IC50s, probe Kd and probe concentration. Typical Z′ values were between 0.65 and 0.75. The minimum significant ratio was determined to evaluate assay reproducibility (Eastwood et al., (2006) J Biomol Screen, 11: 253-261). The MSR was determined to be 2.03 for BDI and 1.93 for BDII, and a moving MSR (last six run MSR overtime) for both BDI and BDII was typically <3.

[2] = biological target: T2, BRD4 (BDII_E352-M457) (Homo sapiens, UniProt O60885); assay: TR-FRET bromodomain binding assay, second bromodomain of BRD4; settings: His-tagged BD2, 30 nM Alexa647 probe; TR-FRET protocol A-E given per row
T2 construct: proliferation; Protocol; made in house
Experimental: as §1, §2, §3
For Assay methods A, C, and D: Compounds were then diluted 6:100 in assay buffer (20 mM Sodium Phosphate, pH 6.0, 50 mM NaCl, 1 mM Ethylenediaminetetraacetic acid, 0.01% Triton X-100, 1 mM DL-Dithiothreitol) to yield 3× working solutions. […] Twelve μL of this solution were added to the assay plate to reach a final volume of 18 μL.
TR-FRET data were normalized to the means of 24 no-compound controls (“high”) and 8 controls containing 1 μM un-labeled probe (“low”). Percent inhibition was plotted as a function of compound concentration and the data were fit with the 4 parameter logistic equation to obtain IC50s Inhibition constants (Ki) were calculated from the IC50s, probe Kd and probe concentration. Typical Z′ values were between 0.65 and 0.75.

Row | Compound | Ki [1] | Ki [2]
1 | Cn1cc(-c2cc(NC(=O)Cc3cc(Cl)ccc3F)ccc2Oc2ccc(F)cc2F)c2cc[nH]c(=O)c21 [Example 159, 2-(5-chloro-2-fluorophenyl)-N-[4-(2,4-difluorophenoxy)-3-(1-methyl-7-oxo-6,7-dihydro-1H-pyrrolo[2,3-c]pyridin-3-yl)phenyl]acetamide] | 62.4 nM | 59.6 nM
2 | Cn1cc(-c2cc(NCc3ccc(Oc4ccccc4)cc3)ccc2Oc2ccc(F)cc2F)c2cc[nH]c(=O)c21 [Example 173, 3-{2-(2,4-difluorophenoxy)-5[(4-phenoxybenzyl)amino]phenyl}-1-methyl-1,6-dihydro-7H-pyrrolo[2,3-c]pyridin-7-one] | 214 nM | 781 nM
3 | CC(C)CCC(=O)Nc1ccc(Oc2ccc(F)cc2F)c(-c2cn(C)c3c(=O)[nH]ccc23)c1 [Example 147, N-[4-(2,4-difluorophenoxy)-3-(1-methyl-7-oxo-6,7-dihydro-1H-pyrrolo[2,3-c]pyridin-3-yl)phenyl]-4-methylpentanamide] | 59.4 nM | 134 nM
4 | Cc1cc(CC(=O)Nc2ccc(Oc3ccc(F)cc3F)c(-c3cn(C)c4c(=O)[nH]ccc34)c2)nn1C [Example 164, N-[4-(2,4-difluorophenoxy)-3-(1-methyl-7-oxo-6,7-dihydro-1H-pyrrolo[2,3-c]pyridin-3-yl)phenyl]-2-(1,5-dimethyl-1H-pyrazol-3-yl)acetamide] | 11 nM | 73 nM
5 | Cn1cc(-c2cc(NC(=O)CCc3ccccc3)ccc2Oc2ccc(F)cc2F)c2cc[nH]c(=O)c21 [Example 152, N-[4-(2,4-difluorophenoxy)-3-(1-methyl-7-oxo-6,7-dihydro-1H-pyrrolo[2,3-c]pyridin-3-yl)phenyl]-3-phenylpropanamide] | 141 nM | 95.3 nM
6 | Cn1cc(-c2cc(NCCC(C)(C)C)ccc2Oc2ccc(F)cc2F)c2cc[nH]c(=O)c21 [Example 174, 3-{2-(2,4-difluorophenoxy)-5-[(3,3-dimethylbutyl)amino]phenyl}-1-methyl-1,6-dihydro-7H-pyrrolo[2,3-c]pyridin-7-one] | 57.5 nM | 215 nM
7 | CCS(=O)(=O)Nc1ccc(Oc2ccc(F)cc2F)c(-c2cn(C)c3c(=O)[nH]c(C(=O)N4CCC(O)CC4)cc23)c1 [Example 194, N-[4-(2,4-difluorophenoxy)-3-{5-[(4-hydroxypiperidin-1-yl)carbonyl]-1-methyl-7-oxo-6,7-dihydro-1H-pyrrolo[2,3-c]pyridin-3-yl]phenyl}ethanesulfonamide] | 10.5 nM | 68.5 nM
8 | CCS(=O)(=O)Nc1ccc(Oc2ccc(F)cc2F)c(-c2cn(C)c3c(=O)[nH]c(C(=O)NCCN4CCCCC4)cc23)c1 [Example 198, 3-{2-(2,4-difluorophenoxy)-5-[(ethylsulfonyl)amino]phenyl}-1-methyl-7-oxo-N-[2-(piperidin-1-yl)ethyl]-6,7-dihydro-1H-pyrrolo[2,3-c]pyridine-5-carboxamide] | 3.18 nM | 10.9 nM
9 | COc1ccc(Oc2cccc(CNc3ccc(Oc4ccc(F)cc4F)c(-c4cn(C)c5c(=O)[nH]ccc45)c3)c2)cc1 [Example 168, 3-[2-(2,4-difluorophenoxy)-5-{[3-(4-methoxyphenoxy)benzyl]amino}phenyl]-1-methyl-1,6-dihydro-7H-pyrrolo[2,3-c]pyridin-7-one] | 386 nM | 1200 nM

The next lines start with the values.

Row | Ki [1] | Ki [2] | Compound
10 | 773 nM | 2290 nM | Cn1cc(-c2cc(S(C)(=O)=O)ccc2NCC(F)(F)F)c2cc[nH]c(=O)c21 [Example 69, 1-methyl-3-{5-(methylsulfonyl)-2-[(2,2,2-trifluoroethyl)amino]phenyl}-1,6-dihydro-7H-pyrrolo[2,3-c]pyridin-7-one]
11 | 6.2 nM | 13 nM | Cn1cc(-c2cc(NS(C)(=O)=O)ccc2Oc2ccc(F)cc2F)c2cc[nH]c(=O)c21 [Example 2, N-[4-(2,4-difluorophenoxy)-3-(1-methyl-7-oxo-6,7-dihydro-1H-pyrrolo[2,3-c]pyridin-3-yl)phenyl]methanesulfonamide]
12 | 127 nM | 104 nM | Cc1c[nH]c(=O)c2c1c(-c1cc(S(C)(=O)=O)ccc1OCCC1CC1)cn2C [Example 124, 3-[2-(2-cyclopropylethoxy)-5-(methylsulfonyl)phenyl]-1,4-dimethyl-1,6-dihydro-7H-pyrrolo[2,3-c]pyridin-7-one]
13 | 56 nM | 53 nM | CCS(=O)(=O)c1ccc(Oc2ccc(C#N)cc2OC)c(-c2cn(C)c3c(=O)[nH]ccc23)c1 [Example 80, 4-[4-(ethylsulfonyl)-2-(1-methyl-7-oxo-6,7-dihydro-1H-pyrrolo[2,3-c]pyridin-3-yl)phenoxy]-3-methoxybenzonitrile]
14 | 606 nM | 600 nM | CCS(=O)(=O)c1cnc(Oc2ccc(F)cc2F)c(-c2cn(C)c3c(=O)[nH]ccc23)c1 [Example 59, 3-[2-(2,4-difluorophenoxy)-5-(ethylsulfonyl)pyridin-3-yl]-1-methyl-1,6-dihydro-7H-pyrrolo[2,3-c]pyridin-7-one]
15 | 3.3 nM | 12 nM | CCS(=O)(=O)Nc1ccc(Oc2ccc(F)cc2)c(-c2cn(C)c3c(=O)[nH]ccc23)c1 [Example 15, N-[4-(4-fluorophenoxy)-3-(1-methyl-7-oxo-6,7-dihydro-1H-pyrrolo[2,3-c]pyridin-3-yl)phenyl]ethanesulfonamide]
16 | 684 nM | 1170 nM | Cn1cc(-c2cc(NS(C)(=O)=O)c(Oc3ccc(F)cc3F)cc2F)c2cc[nH]c(=O)c21 [Example 12, N-[2-(2,4-difluorophenoxy)-4-fluoro-5-(1-methyl-7-oxo-6,7-dihydro-1H-pyrrolo[2,3-c]pyridin-3-yl)phenyl]methanesulfonamide]
17 | 42 nM | 111 nM | Cn1cc(-c2cc(S(C)(=O)=O)ccc2OCCC2CCCC2)c2cc[nH]c(=O)c21 [Example 35, 3-[2-(2-cyclopentylethoxy)-5-(methylsulfonyl)phenyl]-1-methyl-1,6-dihydro-7H-pyrrolo[2,3-c]pyridin-7-one]
18 | 870 nM | 2310 nM | Cn1cc(-c2ccccc2NCC2CC2)c2cc[nH]c(=O)c21 [Example 142, 3-{2-[(cyclopropylmethyl)amino]phenyl}-1-methyl-1,6-dihydro-7H-pyrrolo[2,3-c]pyridin-7-one]
19 | 130 nM | 428 nM | Cc1c[nH]c(=O)c2c1c(-c1cc(S(C)(=O)=O)ccc1Oc1ccc(F)cc1F)cn2C [Example 123, 3-[2-(2,4-difluorophenoxy)-5-(methylsulfonyl)phenyl]-1,4-dimethyl-1,6-dihydro-7H-pyrrolo[2,3-c]pyridin-7-one]
20 | 62 nM | 139 nM | CCS(=O)(=O)c1ccc(Oc2ccc(C(F)(F)F)cc2)c(-c2cn(C)c3c(=O)[nH]ccc23)c1 [Example 77, 3-{5-(ethylsulfonyl)-2-[4-(trifluoromethyl)phenoxy]phenyl}-1-methyl-1,6-dihydro-7H-pyrrolo[2,3-c]pyridin-7-one]
21 | 446 nM | 1680 nM | Cn1cc(-c2cc(CS(C)(=O)=O)cnc2Cl)c2cc[nH]c(=O)c21 [Example 143, 3-{2-chloro-5-[(methylsulfonyl)methyl]pyridin-3-yl}-1-methyl-1,6-dihydro-7H-pyrrolo[2,3-c]pyridin-7-one]

— patent publication US9321764B2, “Dihydro-pyrrolopyridinone inhibitors” (AbbVie Inc., priority 2013, dated 2016)
